These results are taken from patent US9394555B2, “Compositions comprising a polypeptide having cellulolytic enhancing activity and a dioxy compound and uses thereof” (priority 2010, dated 2016).

Data set [1] deals with T. aurantiacus CEL5A endoglucanase II and P. brasilianum CEL3A beta-glucosidase. Put plainly: Microcrystalline cellulose conversion assay I (Examples 8, 9) without GH61 polypeptide. It is filed as biochemical, Thermoascus aurantiacus; Penicillium brasilianum. Particulars: dioxy compound 0.3% w/w + endoglucanase II + beta-glucosidase (5 mg/g each), no GH61; 96 hours, at either 50° C. or 60° C. On the procedure:
(§1) A 5% microcrystalline cellulose slurry was prepared by addition of 2.5 g of AVICEL®PH101 (Sigma-Aldrich, St. Louis, Mo., USA) to a graduated 50 ml screw-cap conical tube followed by 15 ml of 1 M sodium acetate pH 5 and 1 ml of 100 mM MnSO4 and approximately 20 ml of deionizer water. Each conical tube was then mixed thoroughly by shaking/vortexing, and adjusted to 50 ml total with deionized water and mixed again. Contents of the tube were then quickly transferred to a 100 ml beaker and stirred rapidly with a magnetic stirrer. Five hundred μl aliquots of the 5% AVICEL® slurry were pipetted into wells of a 2.0 ml 96-deepwell plate (Axygen, Union City, Calif., USA) using a 1000 μl micropipette with a wide aperture tip (end of tip cut off about 2 mm from the base). Three hundred μl of either deionized water or a 1% dioxy compound solution (dissolved in deionized water) was added to each well.
(§2) The dioxy compounds assayed include caffeic acid (Sigma-Aldrich, St. Louis, Mo., USA), dichlorophenolindophenol (DCPIP; Sigma-Aldrich, St. Louis, Mo., USA), ethyl gallate (Sigma-Aldrich, St. Louis, Mo., USA), gallic acid (Sigma-Aldrich, St. Louis, Mo., USA), 3,4-dihydroxybenzoic acid (Sigma-Aldrich, St. Louis, Mo., USA), pyrocatechol (Sigma-Aldrich, St. Louis, Mo., USA), pyrogallol (Sigma-Aldrich, St. Louis, Mo., USA), sinapinic acid (3,5 dimethoxy-4-hydroxy cinnamic acid; Apin Chemicals LTD, Abingdon, UK), and tannic acid (Sigma-Aldrich, St. Louis, Mo., USA).
(§3) Enzyme mixtures were prepared and then added simultaneously to all wells in a volume of 200 μl, for a total of 1 ml in each reaction. […] All experiments reported were performed in triplicate.
(§4) After approximately 4 days, the deep-well plate was removed from the incubator and chilled overnight to 4° C. The plate was then mixed well by inversion and briefly centrifuged at 52×g in a SORVALL® RT7 centrifuge (Thermo Fisher Scientific, Waltham, Mass., USA) for 10 seconds. Samples were then mixed by pipetting, and 200 μl from each well were transferred to a MULTISCREEN® HV centrifuge filter plate assembly (Millipore, Bedford, Mass., USA). The centrifuge filter plate assembly was centrifuged at 2000 rpm in a SORVALL® RT7 centrifuge for 20 minutes. […] Sugars were detected using a refractive index detector (Agilent Technologies, Inc., Santa Clara, Calif., USA) with quantification by integration compared to purified sugar standards.
(§5) In this assay only glucose was measured since beta-glucosidase was at high levels in all samples but the controls.
(§6) A limit digest was performed to determine the total concentration accessible glucose equivalents using 100 mg of T. reesei cellulase (CELLIC™ CTec, Novozymes A/S, Bagsvaerd, Denmark) per gram cellulose, Triplicate data points were averaged and standard deviation was calculated.

Data set [2] deals with Aspergillus fumigatus GH61B polypeptide (Aspergillus fumigatus, UniProt Q4WP32). The data set is described as follows: Variable pH PASC conversion assay (Examples 29, 30) with Aspergillus fumigatus GH61B polypeptide. The class given is biochemical. Particulars: gallic acid 0.2% w/w + Aspergillus fumigatus GH61B polypeptide (10 mg/g) + beta-glucosidase (10 mg/g), 72 hours, 50° C.

For data set [3], the system named is T. terrestris GH61E polypeptide. The data set is described as follows: Microcrystalline cellulose conversion assay I (Examples 8, 9) with T. terrestris GH61E polypeptide. It is filed as biochemical, Thielavia terrestris. Conditions: dioxy compound 0.3% w/w + T. terrestris GH61E polypeptide (10 mg/g) + endoglucanase II + beta-glucosidase (5 mg/g each), 96 hours. On the procedure:
as §1, §2, §3, §4, §5, §6

The target of data set [4] is Trichoderma reesei GH61B polypeptide (Trichoderma reesei, UniProt Q7Z9M7). The data set is described as follows: Variable pH PASC conversion assay (Examples 29, 30) with Trichoderma reesei GH61B polypeptide. Particulars: gallic acid 0.2% w/w + Trichoderma reesei GH61B polypeptide (10 mg/g) + beta-glucosidase (10 mg/g), 72 hours, 50° C. The class given is biochemical.
The target in data set [5] is T. aurantiacus GH61A polypeptide (Thermoascus aurantiacus, UniProt G3XAP7, N13Y). Put plainly: Phosphoric acid swollen cellulose (PASC) hydrolysis assay (Examples 18, 19). It is filed as biochemical. Particulars: T. aurantiacus GH61A polypeptide (20 mg/g) + A. oryzae CEL3A beta-glucosidase (20 mg/g), no gallic acid; 72 hours, 50° C. The method, then:
A 1% phosphoric acid swollen cellulose (PASC) slurry was prepared from AVICEL® PH101 using the protocol described by Zhang et al., 2006, Biomacromolecules 7: 644-648.
The 1.0% PASC slurry prepared as described in Example 17 was thoroughly resuspended by shaking, and quickly transferred to a 100 ml beaker and stirred rapidly with a magnetic stirrer. Five hundred μl aliquots of the 1.0% PASC slurry were pipetted into wells of a 2.0 ml 96-deepwell plate (Axygen, Union City, Calif., USA) using a 1000 μl micropipette with a wide aperture tip (end of tip cut off about 2 mm from the base). One hundred μl of 10 mM MnSO4-500 mM sodium acetate pH 5 were then added to each well. […]
Primary analysis of the hydrolysis reactions was performed using an AGILENT® 1100 HPLC with CHEMSTATION® software equipped with an AMINEX™ HPX-87H column. […] Sugars were detected using a refractive index detector with quantification by integration compared to purified sugar standards.
All HPLC data processing was performed using MICROSOFT EXCEL™ software. […] In this assay only glucose was measured since beta-glucosidase was at high levels in all samples but the controls. Percent conversion was calculated using Equation 1. Triplicate data points were averaged and standard deviation was calculated. […]
Data were collected and analyzed, as described in Example 18, after 72 hours of incubation at 50° C.

Trichoderma reesei GH61B polypeptide, sequence (Q7Z9M7 20-249): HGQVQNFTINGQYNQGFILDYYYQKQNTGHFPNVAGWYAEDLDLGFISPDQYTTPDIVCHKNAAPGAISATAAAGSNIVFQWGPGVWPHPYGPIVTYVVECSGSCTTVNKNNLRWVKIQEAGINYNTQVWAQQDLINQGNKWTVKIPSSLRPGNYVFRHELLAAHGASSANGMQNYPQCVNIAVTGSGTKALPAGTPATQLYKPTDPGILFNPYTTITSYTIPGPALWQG
Aspergillus fumigatus GH61B polypeptide, sequence (Q4WP32 22-250): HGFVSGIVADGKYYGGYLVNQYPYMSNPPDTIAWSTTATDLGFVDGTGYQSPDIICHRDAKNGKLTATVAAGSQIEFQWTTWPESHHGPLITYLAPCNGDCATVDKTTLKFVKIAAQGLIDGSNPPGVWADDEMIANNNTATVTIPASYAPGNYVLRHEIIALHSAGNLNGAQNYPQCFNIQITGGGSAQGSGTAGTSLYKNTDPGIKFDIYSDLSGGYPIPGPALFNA

For the molecule `O=C(O)c1cc(O)c(O)c(O)c1` [gallic acid], the “change in conversion of microcrystalline cellulose compared to the enzymes in the absence of the dioxy compound” value in data set [1] is listed as “no significant change”. The “conversion of phosphoric acid swollen cellulose” value came out at 21.7±3.0% in data set [2] (pH 4); 23.8±1.4% in data set [2] (pH 5); 17.3±0.3% in data set [2] (pH 6); 5.6±0.7% in data set [2] (pH 7.5); 13.6±0.2% in data set [4] (pH 4); 15.9±0.6% in data set [4] (pH 5). The “conversion of phosphoric acid swollen cellulose” value came to 12.7±0.4% in data set [4] (pH 6) and 3.9±1.0% in data set [4] (pH 7.5). Further, the “conversion of microcrystalline cellulose” value was determined as 9.3±0.1% in data set [3] (50° C.) and 7.9±0.1% in data set [3] (60° C.).

B1: T. aurantiacus GH61A polypeptide: GH61A polypeptide having cellulolytic enhancing activity (SEQ ID NO: 14), recombinantly produced in Aspergillus oryzae JaL250 (protein, listed as Thermoascus aurantiacus)
chain: MSFSKIIATAGVLASASLVAGHGFVQNIVIDGKYYGGYLVNQYPYMSNPPEVIAWSTTATDLGFVDGTGYQTPDIICHRGAKPGALTAPVSPGGTVELQWTPWPDSHHGPVINYLAPCNGDCSTVDKTQLEFFKIAESGLINDDNPPGIWASDNLIAANNSWTVTIPTTIAPGNYVLRHEIIALHSAQNQDGAQNYPQCINLQVTGGGSDNPAGTLGTALYHDTDPGILINIYQKLSSYIIPGPPLYTG
For the molecule B1, the “conversion of PASC” value in data set [5] was 2.6±0.1%.
